Assay results reported in US9522121B2, “Aqueous-core lipid nanocapsules for encapsulating hydrophilic and/or lipophilic molecules” (UNIVERSITE D'ANGERS, priority 2007, dated 2016).
Values belong to the compound of their own block, whether it stands above or below them.

Assays:
[1] = Encapsulation yield, indirect quantification in external water after centrifugation; format: physicochemical; details: for encapsulation yield (plateau): hydrophilic molecule in aqueous core, tp = 2 h, highest monomer (TDI) contents
Text: (i) Hydrophilic materials, eventually, have to be shared out into the w/o nanoemulsions water droplets, and it may be done right from the start included in the water phase of the macro-emulsions preparations. Another higher effective manner consists in injecting a very small volume (no more than 2% (v./v.)) of very concentrated aqueous solution, in the microemulsion maintained at the PIT, after the temperature cycling, and before the isopentane dilution. The droplet injected in the (still) stirred microemulsion, very rapidly integrates the aqueous part of the bicontinuous network. As a result of the oil dilution, the nanoemulsion immediately forms, allowing a very homogeneous dispersion in oil of the injected hydrophilic molecule. Incorporating the hydrophilic species through this original manner, eventually prevents the molecules degradation during processing potentially due to the temperature cycling treatment. The hydrophilic model molecules were chosen with very different molecular weight: The first one is a labile dye, methylene blue (MB), the second is a protein, the bovin serum albumin fluorecein isothiocyanate labeled (BSA-FITC) and the last one is a fluorescent compound, Doxorubicin Chlorhydrate (DOX), which is an anti-cancer drug.
(ii) On the other hand, the lipophilic species were introduced in the oil phase of the nanoemulsion, after the chosen time of polymerization (to maximally prevent the potential interactions with the monomer), and before the stage of isopentane evaporation. Thereby, after the complete isopentane evaporation, the lipophilic added materials will be equally shared onto the droplets enclosed in the residual mineral oil, that is, trapped in the amorphous oil/non-ionic surfactant matrix. It finally appears as a marker of the residual mineral oil location, and determining a significant encapsulation yield should support the proposed multi-functional water/oil structure. […] It is important to note here, that these processes of nanocapsule formulation containing hydrophilic and lipophilic agents can be still considered as only involving a low quantity of energy (often called ‘low-energy’ methods). […]
All the quantifications were performed following an indirect method, after separating the external water to the nanocapsules by centrifugation (30 min, 14500 rpm), it was freeze-dried (RP2V, SGD, Le Coudray Saint-Germer, France) to ensure the destruction of the potentially remaining nanocapsules (and also to prevent their additional light adsorption in the quantification process). Next, the freeze-dried samples are solubilized in dichloromethane (DCM), and the different incorporated molecules except DOX which are present in the external water are simply quantified using a Spectrophotometer UV-visible Uvikon 922 Spectrophotometer (Bio-Tek Koutron instruments, Saint-Quentin-en-Yvelines, France). DOX was quantified using a spectrofluorimeter (Fluoroskan Ascent FL, type 374, Thermo Electron Corporation, Finland). […]
Owing to the real challenge that constitutes the encapsulation of hydrophilic agent into nanocapsules themselves dispersed in aqueous continuous phase, the first result will concern the extent in which the selected hydrophilic species, methylene blue and BSA-FITC, can be encapsulated into such colloids. The molecules incorporation during the nanoemulsion generation step as well as the molecule quantification for determining the encapsulation yield, follow the above-described procedures. […]

[2] = Doxorubicin release kinetics from particles (P), dialysis against PBS; format: physicochemical; details: DOX-loaded particles (P), dialysis 15 kDa membrane, PBS pH 7.4, 37° C.
Procedure: To establish the drug release kinetics (see FIG. 8), 2 mL of freshly prepared suspension containing DOX-loaded particle (P), enclosed into a dialysis 15 kDa membrane (Spectra/Por® Membranes, Fisher Bioblock Scientific, Illkirch, France), were added to 40 mL of phosphate buffered saline (PBS, pH 7.4) from Sigma. The flack was weakly mechanically stirred (125 rpm) in darkness, at 37° C. (in a boiler, Julabo SW22, JULABO Labortechnik GmbH, Seelbach, Germany). Next, 500 μL of release medium were collected at specified time points and the DOX concentrations were determined by spectrofluorimetry, as previously described. This collected volume was systematically replaced by the same volume of fresh PBS for insuring the “sink” experimental conditions.

[3] = tested on: NIH/3T3 cells; experiment: Cytotoxicity of particles (P) without active ingredient, cell survival by MTT test; format: cell-based, Mus musculus; design: unit: % of control; details: DMSO, control = 100.00
Procedure: The cytotoxicity of particles (P) prepared according to 1.2 hereabove—without any active ingredient encapsulated (hereafter called NCB)—was assessed on NIH/3T3 cells (fibroblasts of mice Mus musculus). The […] were exposed to various particle concentrations, during 4, 24, 48 or 72 hours. The cell survival was determined by the MTT test.

encapsulation yield (plateau) [1]: about 0.9
Compound: CN(C)c1ccc2nc3ccc(=[N+](C)C)cc-3sc2c1 [MB, Methylene Blue]

encapsulation yield ([1]; lipophilic molecule in oil shell, simultaneously encapsulated with MB, tp 2 hours, no influence of monomer amount): around 0.92
Compound: Oc1ccc2ccccc2c1N=Nc1ccc(N=Nc2ccccc2)cc1 [RS, red Soudan III]

Further lines, the compound ahead of its results:

Compound: COc1cccc2c1C(=O)c1c(O)c3c(c(O)c1C2=O)C[C@@](O)(C(=O)CO)C[C@@H]3O[C@H]1C[C@H](N)[C@H](O)[C@H](C)O1 [DOX, Doxorubicin Chlorhydrate]
yield of encapsulated doxorubicin ([1]; in aqueous droplets (no monomer)): 30%
yield of encapsulated doxorubicin ([1]; in polymeric nanocapsules (interfacial polymerization with tolylene 2,4-diisocyanate)): 70%
release with time (maximum given by the curve fit) [2]: ~100%

Compound: Bovine Serum Albumin-Fluorescein Isothiocyanate labeled [BSA-FITC]
encapsulation yield (plateau) [1]: about 0.9

Compound: C[S+](C)[O-] [DMSO]
cell survival (MTT test), mean ([3]; 4 H exposure): 46.75
cell survival (MTT test), mean ([3]; 24 H exposure): 10.22
cell survival (MTT test), mean ([3]; 48 H exposure): 4.79
cell survival (MTT test), mean ([3]; 72 H exposure): 5.00
